Values of other authors as cited in patent publication US20100035755A1, “METHOD OF CONTROLLING WEEDS IN A TURF GRASS BY USING SULFONYLUREA COMPOUNDS” (Moghu Research Center Ltd., priority 2008, published 2010).
Where two headings read alike, the source gives them in different places.

Tests used:
Poa annua = conditions: background statement on existing herbicides; cited from earlier work
warm season turf grass = conditions: cited from earlier work
cool season turf grass = conditions: cited from earlier work
[1] = background statement, zoysiagrass, Burmudagrass
[2] = background statement, creeping bentgrass, Kentucky bluegrass

COc1cc(OC)nc(NC(=O)NS(=O)(=O)Nc2ccccc2C(=O)C2CC2)n1 [R. 4, Cyclosulfamuron]
controlling Poa annua (Poa annua): ineffective
safety to warm season turf grass (warm season turf grass; in vivo): safe
safety to cool season turf grass (cool season turf grass; in vivo): safe

COc1cc(OC)nc(NC(=O)NS(=O)(=O)c2ncccc2OCC(F)(F)F)n1 [R. 2, Trifloxysulfuron]
safety to warm season turf grass (warm season turf grass; [1]): have a safety
safety to cool season turf grass (cool season turf grass; [2]): no safety

COC(=O)c1c(Cl)nn(C)c1S(=O)(=O)NC(=O)Nc1nc(OC)cc(OC)n1 [R. 3, Halosulfuron-methyl]
controlling Poa annua (Poa annua): ineffective
safety to warm season turf grass (warm season turf grass; [1]): safe
safety to cool season turf grass (cool season turf grass; [2]): safe
